In brackets after ≈: the same amount, converted by molar mass. Activity calls are given as the source filed them. No cut-off for these calls is given here.
Experiments:
L1210 = assay: Cytotoxicity against mouse L1210 cells; type: functional, cell-based
[1] = target: Receptor tyrosine-protein kinase erbB-2 (Homo sapiens) (UniProt P04626); assay: Inhibition of HER2
Aspergillus niger = assay: Antifungal activity against Aspergillus niger; type: functional
Staphylococcus aureus = assay: Antibacterial activity against Staphylococcus aureus; type: functional
KB = assay: Cytotoxicity against human KB cells; type: functional, cell-based
Bacillus subtilis = assay: Antibacterial activity against Bacillus subtilis; type: functional
Micrococcus luteus = assay: Antibacterial activity against Micrococcus luteus; type: functional
Candida albicans = assay: Antifungal activity against Candida albicans; type: functional
P388 = assay: Cytotoxicity against mouse P388 cells; type: functional, cell-based
Escherichia coli = assay: Antibacterial activity against Escherichia coli; type: functional
Cryptococcus neoformans = assay: Antifungal activity against Cryptococcus neoformans; type: functional

Sequence of Receptor tyrosine-protein kinase erbB-2 (Homo sapiens) (P04626 whole entry): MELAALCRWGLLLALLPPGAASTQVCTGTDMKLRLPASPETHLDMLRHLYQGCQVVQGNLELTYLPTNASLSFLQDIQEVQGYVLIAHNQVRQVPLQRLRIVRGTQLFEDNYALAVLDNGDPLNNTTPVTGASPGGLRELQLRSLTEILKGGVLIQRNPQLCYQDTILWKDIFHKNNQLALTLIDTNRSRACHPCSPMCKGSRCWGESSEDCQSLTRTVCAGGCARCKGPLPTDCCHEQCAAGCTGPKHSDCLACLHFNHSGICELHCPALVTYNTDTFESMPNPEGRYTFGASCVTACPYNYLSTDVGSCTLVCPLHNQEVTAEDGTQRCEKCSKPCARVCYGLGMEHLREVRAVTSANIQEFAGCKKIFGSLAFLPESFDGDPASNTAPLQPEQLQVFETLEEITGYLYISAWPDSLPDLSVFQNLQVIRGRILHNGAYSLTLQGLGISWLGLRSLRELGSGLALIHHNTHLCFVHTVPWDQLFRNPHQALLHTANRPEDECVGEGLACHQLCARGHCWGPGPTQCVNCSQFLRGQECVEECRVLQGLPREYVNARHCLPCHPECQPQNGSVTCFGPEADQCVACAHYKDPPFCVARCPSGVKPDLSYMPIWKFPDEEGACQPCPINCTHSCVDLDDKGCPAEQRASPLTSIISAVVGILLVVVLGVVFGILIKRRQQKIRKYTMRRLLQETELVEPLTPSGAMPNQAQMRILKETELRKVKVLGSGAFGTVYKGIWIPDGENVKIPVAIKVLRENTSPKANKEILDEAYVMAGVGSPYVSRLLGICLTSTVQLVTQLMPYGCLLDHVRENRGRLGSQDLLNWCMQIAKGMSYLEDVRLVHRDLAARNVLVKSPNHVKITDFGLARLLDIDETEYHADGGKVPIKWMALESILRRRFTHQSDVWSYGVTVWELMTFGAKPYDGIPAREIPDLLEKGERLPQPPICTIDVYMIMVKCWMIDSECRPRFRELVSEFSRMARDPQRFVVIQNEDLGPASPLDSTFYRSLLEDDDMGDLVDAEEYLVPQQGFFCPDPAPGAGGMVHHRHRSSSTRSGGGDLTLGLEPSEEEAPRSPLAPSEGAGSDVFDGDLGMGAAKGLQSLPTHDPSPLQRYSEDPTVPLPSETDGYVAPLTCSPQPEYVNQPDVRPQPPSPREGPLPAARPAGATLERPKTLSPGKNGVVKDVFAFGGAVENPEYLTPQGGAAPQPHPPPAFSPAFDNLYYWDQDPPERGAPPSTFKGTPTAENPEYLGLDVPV

Activity [1] | MIC (Aspergillus niger) [µg/mL] | MIC (Staphylococcus aureus) [µg/mL] | MIC (Bacillus subtilis) [µg/mL] | MIC (Micrococcus luteus) [µg/mL] | MIC (Candida albicans) [µg/mL] | MIC (Escherichia coli) [µg/mL] | MIC (Cryptococcus neoformans) [µg/mL] | Compound | IC50 (L1210) [µg/mL] | IC50 (KB) [µg/mL] | IC50 (P388) [µg/mL]
Active | > 33.3 | > 33.3 | > 33.3 | 33.3 (≈ 74.4 µM) | > 33.3 | > 33.3 | > 33.3 | CC1=CCC[C@H]2[C@](C)(CC3=C(O)C(=O)C=C(NCCC[S+](C)[O-])C3=O)[C@@H](C)CC[C@]12C (stereo partly drawn) [NAKIJIQUINONE I] | 2.4 (≈ 5.36 µM) | 5.6 (≈ 12.5 µM) | 2.9 (≈ 6.48 µM)
Active | > 33.3 | 33.3 (≈ 76.1 µM) | 33.3 (≈ 76.1 µM) | 33.3 (≈ 76.1 µM) | > 33.3 | > 33.3 | > 33.3 | CC1=CCC[C@H]2[C@](C)(CC3=C(O)C(=O)C=C(NCCc4cnc[nH]4)C3=O)[C@@H](C)CC[C@]12C [NAKIJIQUINONES G] | 2.9 (≈ 6.63 µM) | 4.8 (≈ 11 µM) | 3.2 (≈ 7.31 µM)
Active | 16.7 (≈ 36.6 µM) | 33.3 (≈ 72.9 µM) | 33.3 (≈ 72.9 µM) | 16.7 (≈ 36.6 µM) | 8.35 (≈ 18.3 µM) | > 33.3 | 8.35 (≈ 18.3 µM) | CC1=CCC[C@H]2[C@](C)(CC3=C(O)C(=O)C=C(NCCCCNC(=N)N)C3=O)[C@@H](C)CC[C@]12C [NAKIJIQUINONES H] | 8.5 (≈ 18.6 µM) | > 10 | 2.4 (≈ 5.26 µM)
